Source: paper PMC6941124 (International Journal of Molecular Sciences, 2019)
Where “and” joins values, the source holds several entries; their conditions need not be identical. Identical values can stand only once.

Experiments:
CK1γ = assay: in vitro kinase assay, CK1γ; type: biochemical; conditions: 10 µM inhibitor, initial screening
SW620 colon cancer cells = assay: MTT viability assay, SW620; type: cell-based, human; conditions: 48 h; for Reduction of cell viability, SW620: 10 µM, initial screening (Figure 10a)
Method: (§1) Parental HeLa cells, as well as HeLa CSNK1D knock-out cells (CK1δ^−/−) (generated by CRISP/Cas9 technology and provided by EDIGENE, Beijing, China), were cultured in Dulbecco’s Modified Eagle medium (DMEM). HCT-116 and HT-29 colon cancer cells were cultured in McCoy’s 5A medium whereas SW480 and SW620 colon cancer cells were cultured in Leibovitz’s L-15 medium. All media were supplemented with 10% (v/v) fetal bovine serum (FBS), 100 units/mL penicillin, and 100 µg/mL streptomycin. DMEM-based medium for the culture of HeLa CSNK1D knock-out cells was additionally supplemented with 1 μg/mL puromycin. Cell cultures were maintained at 37 °C in a humidified atmosphere containing 5% CO2. Cells were transfected using Effectene transfection reagent (Qiagen, Hilden, Germany) according to the manufacturer’s instructions. For selection of stably transfected clones, transfected cells were grown in selective medium, containing 0.6 mg/mL of G-418 (Calbiochem-Merck Millipore, Darmstadt, Germany).
(§2) For performing MTT viability assays, cells were seeded in a 96-well plate (5 × 10^4 cells/well for HeLa cells (parental, CK1δ^−/−, or CK1δ^−/− cells stably transfected with wild type or mutant CK1δ), HCT-116, and HT-29 cells or 7.5 × 10^4 cell/well for SW480 and SW620 cells). After 24 h, old medium was replaced with fresh medium containing either the small molecule of interest or DMSO as control. After 48 h of treatment, 10 μL MTT (5 mg/mL) was added and incubated at 37 °C for 4 h. The medium was then gently removed and 100 μL of acidic isopropanol was added (90% (v/v) isopropanol, 10% (v/v) 1 N HCl). Cell culture plates were then shaken for 30 min at room temperature. Absorbance was measured at 570 nm with TriStar^2 LB942 Microplate Reader (Berthold Technologies, Bad Wildbad, Germany) and data analysis was performed using GraphPad Prism 6 (GraphPad Software, San Diego, CA, USA).

HT-29 colon cancer cells = assay: MTT viability assay, HT-29; type: cell-based; conditions: 10 µM, 48 h, initial screening (Figure 10a)
Method: as §1, §2

[1] = system: HCT-116 colon cancer cells; assay: MTT viability assay, HCT-116; type: cell-based; conditions: 48 h, dose series (Figure S2)
Method: as §1, with “For selection of stably transfected clones, transfected cells were grown in selective medium, containing 0.6 mg/mL of G-418 (Calbiochem-Merck Millipore, Darmstadt, Germany).” left out
(§3) For performing MTT viability assays, cells were seeded in a 96-well plate (5 × 10^4 cells/well for HeLa cells (parental, CK1δ^−/−, or CK1δ^−/− cells stably transfected with wild type or mutant CK1δ), HCT-116, and HT-29 cells or 7.5 × 10^4 cell/well for SW480 and SW620 cells). […] Absorbance was measured at 570 nm with TriStar^2 LB942 Microplate Reader (Berthold Technologies, Bad Wildbad, Germany) and data analysis was performed using GraphPad Prism 6 (GraphPad Software, San Diego, CA, USA).

SW480 colon cancer cells = assay: MTT viability assay, SW480; type: cell-based, human; conditions: 10 µM, 48 h, initial screening (Figure 10a)
Method: as §1, §2

CK1ε = CK1ε (Homo sapiens, UniProt P49674); assay: in vitro kinase assay, CK1ε; type: biochemical; conditions: 10 µM inhibitor, initial screening
Chain of CK1ε (P49674 whole entry): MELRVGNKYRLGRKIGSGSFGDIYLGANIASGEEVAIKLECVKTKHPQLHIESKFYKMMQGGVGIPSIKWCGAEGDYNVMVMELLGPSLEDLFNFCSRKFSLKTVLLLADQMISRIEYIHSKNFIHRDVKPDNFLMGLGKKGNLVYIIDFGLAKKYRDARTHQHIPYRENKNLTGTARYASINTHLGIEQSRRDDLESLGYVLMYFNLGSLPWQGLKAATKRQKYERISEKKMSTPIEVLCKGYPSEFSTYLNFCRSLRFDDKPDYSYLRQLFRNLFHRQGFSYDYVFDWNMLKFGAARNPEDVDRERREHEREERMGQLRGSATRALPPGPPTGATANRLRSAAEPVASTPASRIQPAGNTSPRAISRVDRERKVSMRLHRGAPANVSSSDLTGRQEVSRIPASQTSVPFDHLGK

CK1α = CK1α (Homo sapiens, UniProt P48729); assay: in vitro kinase assay, CK1α; type: biochemical; conditions: 10 µM inhibitor, initial screening
Chain of CK1α (P48729 whole entry): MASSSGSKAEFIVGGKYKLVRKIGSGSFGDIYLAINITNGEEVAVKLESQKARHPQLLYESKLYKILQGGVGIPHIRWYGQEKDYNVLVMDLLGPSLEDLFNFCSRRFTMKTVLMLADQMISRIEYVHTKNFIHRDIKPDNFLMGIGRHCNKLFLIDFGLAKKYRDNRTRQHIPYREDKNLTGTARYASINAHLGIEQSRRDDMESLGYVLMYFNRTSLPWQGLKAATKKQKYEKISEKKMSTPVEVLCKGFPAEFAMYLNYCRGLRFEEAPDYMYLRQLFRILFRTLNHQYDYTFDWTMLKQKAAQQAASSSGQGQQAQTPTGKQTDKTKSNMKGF

[2] = target: CK1δ wild type (GST-CK1δ) (Homo sapiens, UniProt P48730); assay: in vitro kinase assay, GST-CK1δ wild type; type: biochemical; conditions: for Kinase activity of CK1δ in presence of inhibitor: 10 µM inhibitor, initial screening; for IC50: dilution series 0.005−10 µM, mean ± standard error, triplicate
Chain of CK1δ wild type (GST-CK1δ) (P48730 whole entry, the tested form may be a part): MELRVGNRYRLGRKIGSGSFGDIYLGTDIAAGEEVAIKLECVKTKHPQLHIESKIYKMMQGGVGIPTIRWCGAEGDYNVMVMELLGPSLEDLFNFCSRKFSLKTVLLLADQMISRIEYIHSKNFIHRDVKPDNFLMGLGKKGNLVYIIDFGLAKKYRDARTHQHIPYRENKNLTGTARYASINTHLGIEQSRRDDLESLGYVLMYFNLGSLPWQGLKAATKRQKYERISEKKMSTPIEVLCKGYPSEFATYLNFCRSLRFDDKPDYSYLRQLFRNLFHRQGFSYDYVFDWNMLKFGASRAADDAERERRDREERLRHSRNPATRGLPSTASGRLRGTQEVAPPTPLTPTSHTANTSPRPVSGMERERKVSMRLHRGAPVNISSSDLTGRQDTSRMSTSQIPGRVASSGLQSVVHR
Method: Overexpression and purification of GST-CK1δ fusion proteins, either wild type or mutant, were performed as described previously.
Each kinase assay reaction was performed in kinase buffer (25 mM Tris-HCl (pH 7.5), 10 μM ATP, 10 mM MgCl2, 100 μM EDTA) in presence of purified GST-CK1δ kinase as source of enzyme (either wild type or mutant), an assay-specific substrate (α-casein, GST-p53^1−64, or GST-β-catenin^1−181), and radiolabeled ATP (2 μCi [γ-^32P]-ATP). For performing Michaelis–Menten analysis increasing substrate concentrations were used (α-casein: 0.39−25 μM; GST-p53^1−64: 0.09−1.87 μM; GST-β-catenin^1−181: 0.07−1.32 μM). For biological evaluation of small molecule inhibitors (SMIs), each inhibitor compound was either tested at 10 μM concentration for initial screening or by using a dilution series (0.005−10 µM) for determination of IC50 values. DMSO was used as control. Reactions were incubated for 30 min at 30 °C and reactions were stopped using 5x SDS-loading buffer (250 mM Tris-HCl [pH 6.8], 25% (v/v) β-mercaptoethanol (MSH), 50% (v/v) glycerol, 10% (w/v) SDS, 0.5% (w/v) bromphenol blue). Subsequently, samples were separated by SDS-PAGE using 12.5% acrylamide gels, stained with Coomassie, and phosphorylated substrates were visualized on X-ray film. Incorporation of radiolabeled phosphate was quantified by scintillation counting of Coomassie-stained substrate bands. Defined dilutions of the reaction master mix were counted as well in order to convert results obtained as counts per minute (CPM) to units of transferred phosphate in pmol/min. Michaelis–Menten analysis was performed using GraphPad Prism 6 (GraphPad Software, San Diego, CA, USA).

[3] = system: HeLa CK1δ−/− cells expressing CK1δ T67S; assay: MTT viability assay, HeLa CK1δ−/− cells expressing CK1δ T67S; type: cell-based; conditions: 5 μM, 48 h
Method: as §1, with “For selection of stably transfected clones, transfected cells were grown in selective medium, containing 0.6 mg/mL of G-418 (Calbiochem-Merck Millipore, Darmstadt, Germany).” left out
as §3

[4] = system: HeLa CK1δ−/− cells expressing CK1δ R168H; assay: MTT viability assay, HeLa CK1δ−/− cells expressing CK1δ R168H; type: cell-based; conditions: 5 μM, 48 h
Method: as §1, with “For selection of stably transfected clones, transfected cells were grown in selective medium, containing 0.6 mg/mL of G-418 (Calbiochem-Merck Millipore, Darmstadt, Germany).” left out
as §3

[5] = system: HeLa CK1δ−/− cells expressing CK1δ R127Q; assay: MTT viability assay, HeLa CK1δ−/− cells expressing CK1δ R127Q; type: cell-based; conditions: 5 μM, 48 h
Method: as §1, with “For selection of stably transfected clones, transfected cells were grown in selective medium, containing 0.6 mg/mL of G-418 (Calbiochem-Merck Millipore, Darmstadt, Germany).” left out
as §3

HeLa CK1δ−/− cells = assay: MTT viability assay, HeLa CK1δ−/− cells; type: cell-based; conditions: 5 μM, 48 h
Method: as §1, §2

Row | Kinase activity of CK1γ in presence of inhibitor (CK1γ) | Kinase activity of CK1ε in presence of inhibitor (CK1ε) | Reduction of CK1α activity (CK1α) | Kinase activity of CK1δ in presence of inhibitor [2] | IC50 [2] | EC50 (SW620 colon cancer cells; Homo sapiens, SW-620, 0.625-20 µM, MTT, read-out: EC50 (SW620), cell viability) [nM] | Structure (SMILES) | Reduction of cell viability, SW620 (SW620 colon cancer cells) | Reduction of cell viability, HT-29 (HT-29 colon cancer cells) | Reduction of cell viability, HCT-116 ([1]; 1.25 µM) | Reduction of cell viability, SW480 (SW480 colon cancer cells) | Cell viability of HeLa CK1δ−/− cells expressing CK1δ T67S vs CK1δ WT [3] | Dose-dependent effects on SW620 cell viability (SW620 colon cancer cells; 0.625 to 20 µM, MTT (Figure S2)) | Reduction of cell viability, HCT-116 ([1]; 0.625 µM) | Cell viability of HeLa CK1δ−/− cells expressing CK1δ R168H vs CK1δ WT [4] | Cell viability of HeLa CK1δ−/− cells expressing CK1δ R127Q vs CK1δ WT [5] | Cell viability of HeLa CK1δ−/− compared to parental cells or HeLa CK1δ+/+ cells (HeLa CK1δ−/− cells)
1 | not affected | strongly inhibited | at least 50% | strongly inhibited | 240 ± 40 nM | – | O=C(CSc1nccc(=O)n1Cc1ccccc1F)Nc1nc2ccc(C(F)(F)F)cc2s1 [Compound 22] | 25% | approximately 35% | approximately 30% | approximately 35% | – | – | – | – | – | –
2 | not affected | strongly inhibited | at least 50% | strongly inhibited | 90 nM and 86 nM | 3000 | COc1ccc(Cn2c(SCC(=O)Nc3nc4ccc(C(F)(F)F)cc4s3)nccc2=O)cc1 [Compound 20, 2-((3-(4-Methoxybenzyl)-4-oxo-3,4-dihydropyrimidin-2-yl)thio)-N-(6-(trifluoromethyl)benzo[d]thiazol-2-yl)acetamide] | about 60% | approximately 35% | – | approximately 35% | no mutant-specific effects | clear dose-dependent effects | approximately 30% | no mutant-specific effects | no mutant-specific effects | significantly less affected
